Experimental data taken from the NIST ThermoML archive (doi:10.1021/acs.jced.9b00371).
Numbers after ± are expanded uncertainties.

Conditions: Liquid, Brillouin light scattering method

CCCCCCCC(=O)OC [methyl octanoate]
Conditions	speed of sound [m/s]
298.22 K, 7000 kPa	1316.3 ± 14
298.3 K, 10010 kPa	1327.9 ± 15
298.44 K, 1010 kPa	1292.1 ± 14
298.44 K, 5000 kPa	1307.1 ± 14
298.6 K, 3000 kPa	1298.2 ± 14
298.84 K, 90 kPa	1274.5 ± 14
308.25 K, 3010 kPa	1258.8 ± 15
308.37 K, 10010 kPa	1291.2 ± 14
308.42 K, 100 kPa	1236.4 ± 15
308.49 K, 7010 kPa	1280.4 ± 14
308.52 K, 1010 kPa	1248.8 ± 15
308.58 K, 5010 kPa	1270.1 ± 14
318.18 K, 5010 kPa	1221.3 ± 15
318.56 K, 7020 kPa	1229.5 ± 15
318.76 K, 10010 kPa	1242.4 ± 15
318.91 K, 3010 kPa	1208 ± 14
319.59 K, 110 kPa	1192.3 ± 14
319.89 K, 1010 kPa	1194.5 ± 14
327.96 K, 5010 kPa	1186 ± 14
328.11 K, 3020 kPa	1171.3 ± 14
328.36 K, 100 kPa	1158 ± 14
328.69 K, 7010 kPa	1191.4 ± 14
328.82 K, 10010 kPa	1209.9 ± 14
328.88 K, 1010 kPa	1155.4 ± 14
337.63 K, 100 kPa	1121.6 ± 15
337.88 K, 7010 kPa	1157.9 ± 14
338.43 K, 1010 kPa	1125.5 ± 15
338.46 K, 10010 kPa	1174.8 ± 14
338.47 K, 5000 kPa	1147.2 ± 14
338.96 K, 3000 kPa	1134.3 ± 14
347.39 K, 3000 kPa	1104.6 ± 14
347.87 K, 10010 kPa	1148.4 ± 14
348.45 K, 110 kPa	1078.6 ± 14
348.54 K, 5020 kPa	1109.1 ± 14
348.77 K, 7000 kPa	1120.5 ± 15
348.8 K, 1000 kPa	1085.5 ± 14
357.69 K, 3010 kPa	1071.8 ± 14
357.74 K, 5000 kPa	1079.2 ± 14
357.91 K, 10000 kPa	1112.7 ± 14
358.16 K, 100 kPa	1044.6 ± 14
358.25 K, 7000 kPa	1095.1 ± 14
358.56 K, 1010 kPa	1049.3 ± 14
367.26 K, 5000 kPa	1049.2 ± 14
367.28 K, 3000 kPa	1038.1 ± 14
367.29 K, 110 kPa	1015.5 ± 14
367.47 K, 10010 kPa	1078.4 ± 14
367.73 K, 7010 kPa	1060.7 ± 14
368.05 K, 1000 kPa	1017.5 ± 14
377.8 K, 1000 kPa	989.1 ± 14
378.03 K, 7000 kPa	1027.3 ± 13
378.16 K, 4990 kPa	1013.1 ± 14
378.27 K, 100 kPa	975.6 ± 14
378.29 K, 10000 kPa	1047.1 ± 14
378.6 K, 3000 kPa	1000.4 ± 14
387.15 K, 110 kPa	947.3 ± 13
387.64 K, 3000 kPa	964.7 ± 14
387.88 K, 10010 kPa	1017.7 ± 14
388.01 K, 7000 kPa	991.8 ± 14
388.02 K, 1000 kPa	952.1 ± 13
388.04 K, 5000 kPa	978.4 ± 14
397.22 K, 1010 kPa	922.4 ± 14
397.37 K, 3010 kPa	934 ± 14
397.49 K, 10010 kPa	988 ± 14
397.57 K, 7010 kPa	963.7 ± 14
397.59 K, 5010 kPa	949.2 ± 13
397.71 K, 100 kPa	910.7 ± 14
407.84 K, 5010 kPa	916.3 ± 14
408.01 K, 10010 kPa	954.1 ± 13
408.03 K, 3000 kPa	896.1 ± 13
408.14 K, 100 kPa	873.1 ± 13
408.48 K, 7010 kPa	933.8 ± 14
409.43 K, 1000 kPa	879.8 ± 13
417.31 K, 1010 kPa	850.6 ± 14
417.49 K, 110 kPa	841.4 ± 14
417.49 K, 5000 kPa	885.5 ± 13
417.57 K, 7000 kPa	904.2 ± 14
417.65 K, 10000 kPa	925.4 ± 14
417.75 K, 3000 kPa	867.9 ± 13
427.78 K, 110 kPa	811.6 ± 13
427.88 K, 7010 kPa	873.7 ± 13
427.9 K, 1010 kPa	822.3 ± 13
427.93 K, 3010 kPa	837.5 ± 13
427.94 K, 10010 kPa	899.7 ± 14
427.95 K, 5010 kPa	855.8 ± 14
438.55 K, 100 kPa	775.1 ± 13
438.61 K, 1000 kPa	780.2 ± 13
438.61 K, 10010 kPa	866.1 ± 13
438.81 K, 7000 kPa	838.7 ± 13
438.87 K, 5000 kPa	823.4 ± 13
438.94 K, 3010 kPa	803.1 ± 14
447.87 K, 1010 kPa	754.6 ± 13
447.88 K, 5000 kPa	793.5 ± 14
447.92 K, 7000 kPa	813.8 ± 13
447.96 K, 3010 kPa	776.7 ± 13
447.96 K, 10000 kPa	841 ± 14
448.01 K, 110 kPa	744.4 ± 13
457.92 K, 1000 kPa	724.7 ± 13
458.07 K, 5010 kPa	760.9 ± 13
458.12 K, 7010 kPa	782.2 ± 13
458.17 K, 3000 kPa	744.1 ± 13
458.18 K, 10010 kPa	810.7 ± 13
467.43 K, 10010 kPa	784.5 ± 13
467.58 K, 7010 kPa	759.7 ± 13
467.9 K, 5000 kPa	738.9 ± 13
468.47 K, 1010 kPa	694.8 ± 13
468.68 K, 3000 kPa	713.7 ± 13
476.82 K, 5010 kPa	710.8 ± 13
477 K, 10010 kPa	759.6 ± 13
477.06 K, 1000 kPa	665 ± 13
477.26 K, 7010 kPa	729 ± 13
477.88 K, 3010 kPa	685.8 ± 13
486.8 K, 1000 kPa	631 ± 13
486.87 K, 3000 kPa	654.3 ± 13
486.92 K, 5010 kPa	682 ± 13
486.96 K, 7010 kPa	700 ± 13
487 K, 10010 kPa	738.2 ± 13
498.13 K, 3010 kPa	625.4 ± 13
498.28 K, 7000 kPa	667.5 ± 13
498.28 K, 10000 kPa	705 ± 13
498.41 K, 5000 kPa	644.1 ± 13
498.83 K, 1000 kPa	596.6 ± 13
507.85 K, 1010 kPa	568.9 ± 12
507.87 K, 7000 kPa	646.1 ± 13
507.89 K, 3010 kPa	596.3 ± 13
507.91 K, 5010 kPa	620.4 ± 13
507.91 K, 10000 kPa	680.6 ± 13
517.71 K, 3000 kPa	567.5 ± 13
517.73 K, 1000 kPa	534.7 ± 13
517.79 K, 7000 kPa	619 ± 13
517.81 K, 5000 kPa	594.2 ± 13
518.17 K, 10000 kPa	658.9 ± 13
527.51 K, 7010 kPa	600 ± 13
527.6 K, 1010 kPa	500 ± 12
527.66 K, 3010 kPa	537.5 ± 13
528.05 K, 10000 kPa	631.9 ± 13
528.28 K, 5010 kPa	569.1 ± 12
537.38 K, 1000 kPa	472.9 ± 13
537.57 K, 7000 kPa	569.9 ± 12
537.63 K, 3010 kPa	511.3 ± 13
537.67 K, 5000 kPa	543.3 ± 12
537.72 K, 9990 kPa	609.6 ± 13
547.06 K, 1000 kPa	438.8 ± 13
547.13 K, 5010 kPa	516 ± 13
547.47 K, 10010 kPa	583.9 ± 13
547.67 K, 7000 kPa	544 ± 12
547.87 K, 3000 kPa	480.9 ± 12
557.84 K, 1000 kPa	403.8 ± 12
557.94 K, 5010 kPa	489.3 ± 13
558.16 K, 7000 kPa	515.9 ± 13
558.18 K, 10010 kPa	561.2 ± 13
558.2 K, 3000 kPa	448 ± 12
567.35 K, 1010 kPa	371.2 ± 13
567.7 K, 5000 kPa	461 ± 12
567.81 K, 7000 kPa	495.4 ± 13
567.91 K, 3010 kPa	418.8 ± 12
567.95 K, 10010 kPa	543.8 ± 12
577.4 K, 3010 kPa	389.4 ± 11
577.79 K, 5000 kPa	432.1 ± 12
577.89 K, 7000 kPa	469.8 ± 13
578.16 K, 10000 kPa	522.9 ± 13
587.88 K, 3000 kPa	361.9 ± 11
588.02 K, 5010 kPa	411.1 ± 12
588.47 K, 7010 kPa	450.4 ± 13
597.58 K, 3000 kPa	331.4 ± 10
598.07 K, 7000 kPa	426.9 ± 12
598.29 K, 5010 kPa	384.1 ± 12
608.09 K, 7010 kPa	400.7 ± 12
608.23 K, 5000 kPa	353.7 ± 11
608.38 K, 3000 kPa	294.3 ± 9.5
